Experimental findings from patent publication US8518952B2, “6 substituted 2-heterocyclylamino pyrazine compounds as CHK-1 inhibitors” (Pfizer Inc., priority 2008, dated 2013) are described below.

The structures appear in SMILES notation. Read-outs that look alike come from different tables or passages of the source.

One assay relates to HeLa cells. Description: Histone H3 (Ser10) phosphorylation ELISA, abrogation of camptothecin-induced G2 arrest (CHK-1 cellular assay). It counts as cell-based. The conditions noted are these: Homo sapiens, HeLa cells, camptothecin 8 hrs, then compound with nocodozole 16 hours, read-out: EC50. A digest of the protocol: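 HeLa cells, or MiaPaCa-2 where marked, received camptothecin for 8 h, then compound with nocodazole for 16 h. Ser10-phosphorylated histone H3 in lysates was measured by ELISA with a biotinylated antibody, streptavidin-HRP and TMB. EC50 came from four-parameter sigmoid fits.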

In another assay the target is T1, CHK1 (kinase domain) (Homo sapiens, UniProt O14757).
T1 construct: a solution containing 1 nM of CHK1 (kinase domain)
T1 sequence (O14757 9-265 limits assumed): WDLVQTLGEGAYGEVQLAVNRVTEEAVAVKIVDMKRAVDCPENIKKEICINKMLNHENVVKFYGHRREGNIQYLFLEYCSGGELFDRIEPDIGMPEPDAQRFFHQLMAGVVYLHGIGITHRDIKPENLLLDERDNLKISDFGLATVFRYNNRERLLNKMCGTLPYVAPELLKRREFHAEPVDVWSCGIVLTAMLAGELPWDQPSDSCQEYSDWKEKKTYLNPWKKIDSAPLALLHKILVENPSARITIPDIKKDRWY
Description: CHK1 Ki determination, spectrophotometric coupled (pyruvate kinase/lactate dehydrogenase) assay. Format: biochemical. The settings on record: CHK-1 kinase domain; for Ki: 150 uM ATP, 125 uM Syntide 2; for percent inhibition (where no Ki data is available): inhibitor concentration not given. An outline of the steps:
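The CHK1 kinase domain was pre-incubated with compound for 15 min, and the reaction was started with 125 uM Syntide 2 and 150 uM ATP. ADP formation was coupled through pyruvate kinase/lactate dehydrogenase to NADH oxidation, read as the A340 decrease. Kiapp was fitted with a tight-binding equation that accounts for enzyme concentration and ATP Km; some entries are % inhibition.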

For the molecule `FC1(F)CCNC[C@@H]1Nc1cncc(-c2cnc3ccccn23)n1` [Example 249, N-[(3S)-4,4-difluoropiperidin-3-yl]-6-(imidazo[1,2-a]pyridin-3-yl)pyrazin-2-amine], the EC50 with HeLa cells (HeLa) was 32.2 nM. This molecule yielded a Ki at CHK1 (kinase domain) of 4.5 nM.
The matching figures for `Cc1ccn2c(-c3cncc(N[C@@H]4CCCNC4)n3)cnc2c1` [Example 38, 6-(7-Methylimidazo[1,2-a]pyridin-3-yl)-N-[(3R)-piperidin-3-yl]pyrazin-2-amine]: 40 nM and 8 nM.
The matching figures for `CC(C)c1cn2c(-c3cncc(N[C@@H]4CCCN[C@H]4C)n3)cnc2s1` [Example 112, 6-(2-isopropylimidazo[2,1-b][1,3]thiazol-5-yl)-N-[(2S,3R)-2-methylpiperidin-3-yl]pyrazin-2-amine]: 1110 nM and 12.7 nM.
For `Cc1cn2c(-c3cncc(N[C@@H]4CCCN[C@@H]4C)n3)cnc2s1` [Example 96, 6-(2-methylimidazo[2,1-b][1,3]thiazol-5-yl)-N-[(2R,3R)-2-methylpiperidin-3-yl]pyrazin-2-amine], the EC50 with HeLa cells (HeLa) was 24.3 nM. The affinity on CHK1 (kinase domain), expressed as Ki, was 2.7 nM.
The matching figures for `Cc1cn2c(-c3cncc(N[C@@H]4CC[C@@H](C)NC4)n3)cnc2s1` (relative stereo) [Example 61, Trans 6-(2-Methylimidazo[2,1-b][1,3]thiazol-5-yl)-N-(6-methylpiperidin-3-yl)pyrazin-2-amine]: 119 nM and 37.9 nM.
Turning to `CC(C)(C)CCOc1ccn2c(-c3cncc(N[C@@H]4CCCNC4)n3)cnc2c1` [Example 148, 6-[7-(3,3-dimethylbutoxy)imidazo[1,2-a]pyridin-3-yl]-N-[(3R)-piperidin-3-yl]pyrazin-2-amine], the EC50 in the assay on HeLa cells (HeLa) is not below 10000 nM. For the same molecule, the “percent inhibition (where no Ki data is available)” value on CHK1 (kinase domain) is 104%^.
On to `c1cnc2c(-c3cncc(N[C@@H]4CCCNC4)n3)cnn2c1` [Example 23, N-[(3R)-piperidin-3-yl]-6-pyrazolo[1,5-a]pyrimidin-3-ylpyrazin-2-amine], for which the concentration for a half-maximal effect (EC50) in the assay on HeLa cells is not below 10000 nM. Further, on CHK1 (kinase domain), the “percent inhibition (where no Ki data is available)” value stood at 36.1%^.
Consider `c1ccn2ncc(-c3cncc(N[C@@H]4CCNC4)n3)c2c1` [Example 115, 6-pyrazolo[1,5-a]pyridin-3-yl-N-[(3R)-pyrrolidin-3-yl]pyrazin-2-amine], for which the concentration giving a half-maximal response (EC50) in the assay with HeLa cells (HeLa) worked out at 169 nM. This molecule gave an inhibition constant (Ki) at CHK1 (kinase domain) of 3.3 nM.
The matching figures for `C[C@@H]1CC[C@@H](Nc2cncc(-n3cnc4cc(OCC5(C)COC5)ccc43)n2)CN1` [Example 9, 6-{5-[(3-Methyloxetan-3-yl)methoxy]-1H-benzimidazol-1-yl}-N-[(3R,6R)-6-methylpiperidin-3-yl]pyrazin-2-amine]: not below 10000 nM and 131 nM.
For `c1ccn2ncc(-c3cncc(N[C@@H]4CCCNC4)n3)c2c1` [Example 6, N-[(3R)-piperidin-3-yl]-6-pyrazolo[1,5-a]pyridin-3-ylpyrazin-2-amine] the same measures were 31.8 nM and 2.54 nM.
For `Cc1ncc(-c2cncc(N[C@@H]3CCCNC3)n2)n1C` [Example 64, 6-(1,2-dimethyl-1H-imidazol-5-yl)-N-[(3R)-piperidin-3-yl]pyrazin-2-amine] the same measures were not below 10000 nM and 1110 nM.
Take `C[C@H]1CC[C@@H](Nc2cncc(-c3cnc4ccc(F)cn34)n2)CN1` [Example 93, 6-(6-fluoroimidazo[1,2-a]pyridin-3-yl)-N-[(3R,6S)-6-methylpiperidin-3-yl]pyrazin-2-amine]: the EC50 with HeLa cells (HeLa) stood at 3330 nM. For the same molecule, affinity at CHK1 (kinase domain) was put at a Ki of 89 nM.
The matching figures for `C[C@@H]1CC[C@@H](Nc2cncc(-c3cnc4cnccn34)n2)CN1` [Example 146, 6-imidazo[1,2-a]pyrazin-3-yl-N-[(3R,6R)-6-methylpiperidin-3-yl]pyrazin-2-amine]: 493 nM and 19 nM.

For orientation: EC50 means the midpoint of the concentration-response curve. The Ki is a measure of affinity in units of concentration, obtained from inhibition or displacement. High values mean weaker binding, low ones tighter binding.
